Experiment [1] concerns the target Serine/threonine-protein kinase Nek6 (Homo sapiens) (UniProt Q9HC98). Description: Selectivity interaction (Kinase panel (KiNativ target engagement assay in Jurkat cells)) EUB0001635a NEK6. Type of experiment: cell-based. To be noted: Selectivity number of off-targets 0.0, Selectivity number of targets 233.0, Source Knowledge https://www.sciencedirect.com/science/article/pii/S2451945619300674?via%3Dihub, at 1 µM.

In experiment [2] the target is T1, Mitogen-activated protein kinase kinase kinase kinase 3 (Homo sapiens) (UniProt Q8IVH8).
T1 sequence (whole entry): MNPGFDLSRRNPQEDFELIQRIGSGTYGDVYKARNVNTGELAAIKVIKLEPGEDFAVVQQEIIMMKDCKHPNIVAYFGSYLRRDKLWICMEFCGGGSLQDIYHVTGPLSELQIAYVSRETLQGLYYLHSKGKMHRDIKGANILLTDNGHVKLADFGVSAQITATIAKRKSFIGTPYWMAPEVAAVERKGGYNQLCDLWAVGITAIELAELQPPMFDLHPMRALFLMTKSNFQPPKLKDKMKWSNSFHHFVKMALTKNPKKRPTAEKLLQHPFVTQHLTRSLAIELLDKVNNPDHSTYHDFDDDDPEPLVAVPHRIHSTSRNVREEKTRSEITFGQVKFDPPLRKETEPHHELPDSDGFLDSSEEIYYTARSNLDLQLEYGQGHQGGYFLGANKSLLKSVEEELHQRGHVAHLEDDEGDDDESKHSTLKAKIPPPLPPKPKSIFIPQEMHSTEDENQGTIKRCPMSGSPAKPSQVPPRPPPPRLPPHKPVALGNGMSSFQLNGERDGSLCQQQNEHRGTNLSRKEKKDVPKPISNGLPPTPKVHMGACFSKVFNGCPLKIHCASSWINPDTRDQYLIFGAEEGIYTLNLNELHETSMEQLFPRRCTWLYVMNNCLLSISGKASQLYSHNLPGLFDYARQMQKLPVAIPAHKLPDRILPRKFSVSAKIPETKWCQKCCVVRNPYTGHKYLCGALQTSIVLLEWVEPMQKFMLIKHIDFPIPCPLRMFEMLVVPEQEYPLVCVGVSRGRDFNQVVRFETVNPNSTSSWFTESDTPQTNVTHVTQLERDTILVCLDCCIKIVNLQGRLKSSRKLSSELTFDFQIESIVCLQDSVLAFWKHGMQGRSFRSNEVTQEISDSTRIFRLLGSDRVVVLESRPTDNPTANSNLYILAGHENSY
In words: Selectivity interaction (Ambit KINOMEscan and KiNATiv profiling in Jurkat cells) EUB0000090b MAP4K3. Type of experiment: cell-based. To be noted: at 1 µM.

For experiment [3], the target named is Bone morphogenetic protein receptor type-1B (Homo sapiens, UniProt O00238). In words: Selectivity interaction (Ambit KINOMEscan and KiNATiv profiling in Jurkat cells) EUB0000090b BMPR1B. To be noted: at 1 µM. Type of experiment: cell-based.
Bone morphogenetic protein receptor type-1B, sequence (O00238 whole entry): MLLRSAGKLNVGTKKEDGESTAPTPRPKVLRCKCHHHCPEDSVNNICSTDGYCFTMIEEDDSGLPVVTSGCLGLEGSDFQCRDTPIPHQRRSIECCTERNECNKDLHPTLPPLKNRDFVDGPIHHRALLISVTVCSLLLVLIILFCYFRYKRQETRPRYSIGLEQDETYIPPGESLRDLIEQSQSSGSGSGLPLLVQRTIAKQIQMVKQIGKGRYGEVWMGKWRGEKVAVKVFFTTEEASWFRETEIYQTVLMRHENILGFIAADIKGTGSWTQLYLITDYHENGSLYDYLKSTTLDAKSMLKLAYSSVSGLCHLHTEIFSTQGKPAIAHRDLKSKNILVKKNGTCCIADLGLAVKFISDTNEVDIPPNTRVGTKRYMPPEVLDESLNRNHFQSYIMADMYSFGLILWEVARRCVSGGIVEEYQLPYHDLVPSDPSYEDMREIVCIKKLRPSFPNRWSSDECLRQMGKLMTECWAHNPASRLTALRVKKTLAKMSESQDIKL
In experiment [4] the target is Microtubule-associated serine/threonine-protein kinase 1 (Homo sapiens) (UniProt Q9Y2H9). To be noted: at 10 µM.
Microtubule-associated serine/threonine-protein kinase 1 (Homo sapiens), sequence (Q9Y2H9 whole entry, looked up): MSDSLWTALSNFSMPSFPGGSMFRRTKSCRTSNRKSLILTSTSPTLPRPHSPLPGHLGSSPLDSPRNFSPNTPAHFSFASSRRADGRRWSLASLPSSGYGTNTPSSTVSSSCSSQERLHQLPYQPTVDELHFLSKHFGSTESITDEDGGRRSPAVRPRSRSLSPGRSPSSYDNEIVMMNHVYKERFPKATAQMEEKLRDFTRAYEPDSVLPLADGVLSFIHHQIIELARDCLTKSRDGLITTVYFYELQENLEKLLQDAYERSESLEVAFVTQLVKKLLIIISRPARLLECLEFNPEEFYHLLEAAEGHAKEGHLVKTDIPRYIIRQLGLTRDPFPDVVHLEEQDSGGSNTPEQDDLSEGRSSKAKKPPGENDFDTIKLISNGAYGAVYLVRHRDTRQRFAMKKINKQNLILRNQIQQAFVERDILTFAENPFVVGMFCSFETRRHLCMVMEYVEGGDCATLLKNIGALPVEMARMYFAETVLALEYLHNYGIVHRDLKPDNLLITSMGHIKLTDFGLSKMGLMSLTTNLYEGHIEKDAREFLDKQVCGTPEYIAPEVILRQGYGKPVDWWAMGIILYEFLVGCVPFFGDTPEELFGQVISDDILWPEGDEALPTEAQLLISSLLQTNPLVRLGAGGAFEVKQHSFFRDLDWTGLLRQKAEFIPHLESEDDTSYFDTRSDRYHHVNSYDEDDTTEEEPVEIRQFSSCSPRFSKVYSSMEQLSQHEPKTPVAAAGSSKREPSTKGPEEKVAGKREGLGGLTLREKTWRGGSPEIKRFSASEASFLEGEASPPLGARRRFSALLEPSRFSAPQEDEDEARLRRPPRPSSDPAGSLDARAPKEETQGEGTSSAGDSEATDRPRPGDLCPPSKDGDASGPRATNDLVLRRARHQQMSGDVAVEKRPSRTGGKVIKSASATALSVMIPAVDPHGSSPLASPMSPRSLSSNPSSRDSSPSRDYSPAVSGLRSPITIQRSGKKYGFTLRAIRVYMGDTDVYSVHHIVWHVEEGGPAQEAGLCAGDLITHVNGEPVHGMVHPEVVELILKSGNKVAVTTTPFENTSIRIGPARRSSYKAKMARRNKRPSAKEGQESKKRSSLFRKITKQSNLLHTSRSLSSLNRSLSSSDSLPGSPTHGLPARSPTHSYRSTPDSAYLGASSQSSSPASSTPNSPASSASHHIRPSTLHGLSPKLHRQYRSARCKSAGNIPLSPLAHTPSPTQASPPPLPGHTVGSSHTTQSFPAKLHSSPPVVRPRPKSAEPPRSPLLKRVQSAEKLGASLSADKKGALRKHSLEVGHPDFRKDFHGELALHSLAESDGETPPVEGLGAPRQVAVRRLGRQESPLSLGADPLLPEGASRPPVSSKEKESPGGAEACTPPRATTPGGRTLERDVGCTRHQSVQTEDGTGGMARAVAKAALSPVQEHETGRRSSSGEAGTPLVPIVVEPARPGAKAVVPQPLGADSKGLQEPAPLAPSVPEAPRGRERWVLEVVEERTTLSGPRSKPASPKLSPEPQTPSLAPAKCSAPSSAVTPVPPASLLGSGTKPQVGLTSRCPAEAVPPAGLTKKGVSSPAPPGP
The target of experiment [5] is T2, Mitogen-activated protein kinase kinase kinase 13 (Homo sapiens) (UniProt O43283).
T2 sequence (whole entry): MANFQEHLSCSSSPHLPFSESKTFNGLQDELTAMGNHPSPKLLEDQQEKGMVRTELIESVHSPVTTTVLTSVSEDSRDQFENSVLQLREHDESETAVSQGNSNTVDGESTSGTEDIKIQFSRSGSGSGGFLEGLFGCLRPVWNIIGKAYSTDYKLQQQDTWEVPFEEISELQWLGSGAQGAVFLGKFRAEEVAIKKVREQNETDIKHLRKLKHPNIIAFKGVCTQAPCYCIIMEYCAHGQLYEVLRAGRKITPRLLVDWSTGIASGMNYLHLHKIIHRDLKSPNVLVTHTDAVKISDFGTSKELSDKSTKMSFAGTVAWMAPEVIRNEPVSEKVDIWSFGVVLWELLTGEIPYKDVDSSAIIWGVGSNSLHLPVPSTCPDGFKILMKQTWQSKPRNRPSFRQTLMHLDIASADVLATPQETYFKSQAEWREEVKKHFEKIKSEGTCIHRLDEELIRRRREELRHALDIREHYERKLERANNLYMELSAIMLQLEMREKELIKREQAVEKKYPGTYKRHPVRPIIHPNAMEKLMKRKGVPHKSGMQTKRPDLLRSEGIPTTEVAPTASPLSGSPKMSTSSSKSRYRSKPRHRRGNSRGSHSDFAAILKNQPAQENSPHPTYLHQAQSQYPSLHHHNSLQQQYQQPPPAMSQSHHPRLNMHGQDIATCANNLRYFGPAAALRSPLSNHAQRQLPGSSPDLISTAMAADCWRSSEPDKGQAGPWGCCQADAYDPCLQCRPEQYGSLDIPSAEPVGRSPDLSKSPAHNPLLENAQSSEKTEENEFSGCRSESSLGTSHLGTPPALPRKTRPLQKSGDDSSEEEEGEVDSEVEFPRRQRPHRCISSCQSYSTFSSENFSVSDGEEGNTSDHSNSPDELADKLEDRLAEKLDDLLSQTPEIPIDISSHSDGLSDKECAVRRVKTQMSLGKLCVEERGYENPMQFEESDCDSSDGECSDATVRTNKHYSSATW
Conditions: at 10 µM.

For experiment [6], the target named is Serine/threonine-protein kinase N1 (Homo sapiens, UniProt Q16512). In words: Selectivity interaction (KinomeScan (DiscoverX)) EUB0001079a PKN1. To be noted: at 1 µM.
Experiment [7] has as its target Mitogen-activated protein kinase 9 (Homo sapiens, UniProt P45984). In words: Selectivity interaction (Enzymatic assay) EUB0001199aCl MAPK9.
Experiment [8] has as its target TRAF2 and NCK-interacting protein kinase (Homo sapiens) (UniProt Q9UKE5). Description: Selectivity interaction (ActivX KiNativ screen (kinase selectivity in THP-1 cell lysates)) EUB0000639a TNIK. Conditions: lysate. It is filed as subcellular.
Experiment [9] addresses Serine/threonine-protein kinase 24 (Homo sapiens) (UniProt Q9Y6E0). Description: Selectivity interaction (KinomeScan (DiscoverX)) EUB0000699a STK24. To be noted: at 10 µM.

SMILES strings stand for the structures. pIC50: −log10 of the molar value.

TRAF2 and NCK-interacting protein kinase (Homo sapiens), sequence (Q9UKE5 whole entry, looked up): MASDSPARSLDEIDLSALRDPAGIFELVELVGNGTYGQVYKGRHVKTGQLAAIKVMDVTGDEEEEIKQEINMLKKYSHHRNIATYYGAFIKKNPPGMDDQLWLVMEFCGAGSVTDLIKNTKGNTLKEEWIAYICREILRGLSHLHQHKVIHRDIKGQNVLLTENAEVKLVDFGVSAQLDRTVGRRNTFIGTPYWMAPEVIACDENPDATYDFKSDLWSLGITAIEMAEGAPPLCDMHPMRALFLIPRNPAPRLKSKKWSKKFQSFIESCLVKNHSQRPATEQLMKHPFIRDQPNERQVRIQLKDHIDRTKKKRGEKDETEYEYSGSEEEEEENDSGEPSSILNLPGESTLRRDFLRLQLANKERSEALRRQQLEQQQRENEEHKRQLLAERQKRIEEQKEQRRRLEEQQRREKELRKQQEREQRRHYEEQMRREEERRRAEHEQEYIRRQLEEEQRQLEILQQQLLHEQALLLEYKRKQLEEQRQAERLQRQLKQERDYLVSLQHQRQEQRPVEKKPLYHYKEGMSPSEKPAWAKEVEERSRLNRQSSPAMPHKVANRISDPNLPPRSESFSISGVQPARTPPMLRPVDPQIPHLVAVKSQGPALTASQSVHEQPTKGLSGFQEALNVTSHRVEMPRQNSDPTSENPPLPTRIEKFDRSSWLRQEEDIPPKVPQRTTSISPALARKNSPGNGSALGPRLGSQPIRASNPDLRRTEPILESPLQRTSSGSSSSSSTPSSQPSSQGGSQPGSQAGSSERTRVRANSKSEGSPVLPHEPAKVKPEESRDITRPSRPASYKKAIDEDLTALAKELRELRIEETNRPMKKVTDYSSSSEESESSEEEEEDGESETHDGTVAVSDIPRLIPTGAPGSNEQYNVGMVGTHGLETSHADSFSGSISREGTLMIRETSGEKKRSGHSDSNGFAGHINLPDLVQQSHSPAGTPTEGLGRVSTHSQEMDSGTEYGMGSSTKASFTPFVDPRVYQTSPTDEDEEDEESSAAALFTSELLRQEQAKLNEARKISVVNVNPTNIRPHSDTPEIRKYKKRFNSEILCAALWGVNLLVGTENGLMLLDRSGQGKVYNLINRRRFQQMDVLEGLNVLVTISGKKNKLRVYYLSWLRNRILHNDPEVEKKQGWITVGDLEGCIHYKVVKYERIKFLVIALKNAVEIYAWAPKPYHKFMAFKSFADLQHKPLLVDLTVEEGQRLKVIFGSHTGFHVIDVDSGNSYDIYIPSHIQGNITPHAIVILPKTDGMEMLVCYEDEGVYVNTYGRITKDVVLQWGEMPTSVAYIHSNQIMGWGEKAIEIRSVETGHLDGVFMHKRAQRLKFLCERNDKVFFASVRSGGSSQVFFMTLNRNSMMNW
Serine/threonine-protein kinase 24 (Homo sapiens), sequence (Q9Y6E0 whole entry, looked up): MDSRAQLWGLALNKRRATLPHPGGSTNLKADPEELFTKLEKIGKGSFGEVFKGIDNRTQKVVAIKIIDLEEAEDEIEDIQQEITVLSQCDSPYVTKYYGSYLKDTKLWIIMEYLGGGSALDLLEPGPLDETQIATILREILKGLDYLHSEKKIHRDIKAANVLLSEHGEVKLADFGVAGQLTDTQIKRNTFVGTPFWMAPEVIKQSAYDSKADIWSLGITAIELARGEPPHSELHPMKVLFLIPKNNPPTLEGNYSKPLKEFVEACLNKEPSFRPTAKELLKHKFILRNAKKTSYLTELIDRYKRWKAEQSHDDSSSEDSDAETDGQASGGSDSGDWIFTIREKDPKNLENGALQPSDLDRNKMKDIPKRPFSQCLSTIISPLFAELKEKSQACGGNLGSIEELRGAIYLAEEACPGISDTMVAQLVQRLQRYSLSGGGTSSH
Serine/threonine-protein kinase Nek6 (Homo sapiens), sequence (Q9HC98 whole entry): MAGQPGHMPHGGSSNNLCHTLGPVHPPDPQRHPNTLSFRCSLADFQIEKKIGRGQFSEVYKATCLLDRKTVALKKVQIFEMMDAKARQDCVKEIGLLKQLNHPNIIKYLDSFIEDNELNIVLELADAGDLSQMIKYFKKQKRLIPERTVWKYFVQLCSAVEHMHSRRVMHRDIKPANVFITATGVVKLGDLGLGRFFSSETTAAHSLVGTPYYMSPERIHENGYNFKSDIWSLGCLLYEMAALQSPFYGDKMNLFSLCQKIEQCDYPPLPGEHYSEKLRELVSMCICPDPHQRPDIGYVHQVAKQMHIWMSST
Mitogen-activated protein kinase 9, sequence (P45984 whole entry): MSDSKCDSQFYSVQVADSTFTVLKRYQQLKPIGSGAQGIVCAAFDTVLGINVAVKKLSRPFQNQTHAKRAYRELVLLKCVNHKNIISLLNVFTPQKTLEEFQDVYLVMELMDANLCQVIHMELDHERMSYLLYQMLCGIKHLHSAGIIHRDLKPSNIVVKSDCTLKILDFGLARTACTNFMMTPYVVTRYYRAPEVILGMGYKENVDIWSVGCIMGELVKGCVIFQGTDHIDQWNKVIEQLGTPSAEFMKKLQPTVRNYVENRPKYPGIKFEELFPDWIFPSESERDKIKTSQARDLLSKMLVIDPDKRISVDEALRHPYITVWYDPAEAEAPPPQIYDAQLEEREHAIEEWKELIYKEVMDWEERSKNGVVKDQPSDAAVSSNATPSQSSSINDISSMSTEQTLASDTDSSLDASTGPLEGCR

In [1], `C=CC(=O)Nc1ccc(C(=O)Nc2[nH]nc3c2CN(C(=O)N[C@H](CN(C)C)c2ccccc2)C3(C)C)cc1` showed a % of engagement of 2.3%.

For the molecule `CN(C)C/C=C/C(=O)Nc1ccc(C(=O)N2CCCC(Nc3ncc(Cl)c(-c4c[nH]c5ccccc45)n3)C2)cc1` (stereo not drawn), the values for the % of control in [2] and in experiment [3] were 95% and 91%, respectively.

In the case of `Cc1cc([C@@H](C)Nc2ccccc2C(=O)O)c2nc(N3CCOCC3)cc(=O)n2c1` [AZD-6482], the % of control in experiment [4] and in experiment [5] was 100% throughout.

In experiment [6], `Nc1cnc(N2CCc3cc(S(=O)(=O)Nc4c(F)cc(Cl)cc4F)cc(N4CCCC4=O)c32)nc1` [TP-020n] yielded a % of control of 95%.

Broadly, the pIC50 is −log10 of the IC50, conventionally taken in molar units. High values mean a small IC50, low ones a large IC50. In turn, `CN1Cc2nccc(-c3cn(C)nc3-c3ccc(F)cc3)c2C1=O` showed a negative logarithm of the IC50 (pIC50) in experiment [7] of 5.31.

On to `CC[C@@H]1[C@H](F)C(=O)N[C@@H]1COc1nccc2cc(C(N)=O)c(OC)cc12` [ZIMLOVISERTIB], for which the % of inhibition in experiment [8] (at 0.01 µM) is -2.8%; in [8] (at 0.04 µM), -2.7%; in [8] (at 0.2 µM) it was -20.6%; in experiment [8] (at 1 µM), -28.3%; in experiment [8] (at 5 µM) it was 16.1%.

For `CCN(CC)CCCCNc1ncc2cc(-c3cc(OC)cc(OC)c3)c(NC(=O)NC(C)(C)C)nc2n1`, in experiment [9], the % of control is 7%.

For the origin of these results see ChEMBL document CHEMBL5465560, “Selectivity Literature for EUbOPEN Chemogenomic Library” (2024).
